Experimental data reported in US12208093B2 (THE JOHNS HOPKINS UNIVERSITY, priority 2016, dated 2025).
Where a name gives a salt, the structure may show the parent alone.

What was measured:
[1] = test system: HCMV proteins IE1/2, UL44 and pp65; experiment: Western blot of HCMV protein expression; type: cell-based, human cytomegalovirus (HCMV); settings: 72 hpi
Text: SDS-polyacrylamide gel electrophoresis and immunoblot analysis. Cell lysates were quantified for protein content using bicinchoninic acid (BCA) protein assay kit (Pierce Chemical, Rockford, IL). Equivalent amount of proteins were used for Western blot analysis as described previously. Protein bands were visualized by chemiluminescence using Western Blotting Luminol Reagent (Santa Cruz Biotechnology, Santa Cruz, CA). The following antibodies were used for detection of HCMV proteins: mouse anti-IE1 and IE2, (MAb810); mouse anti-UL44 (Santa Cruz biotechnology Santa Cruz, CA); mouse monoclonal anti-pp65 (Vector laboratories, Burlingame, CA); mouse monoclonal anti-β-actin antibody (Millipore, Billerica, MA); rabbit polyclonal anti-RPS14 and mouse monoclonal anti-MDM2 (AbCam, Cambridge, UK), mouse monoclonal anti-p53 (Santa Cruz, CA); horseradish peroxidase (HRP)-conjugated goat anti-rabbit IgG (Cell Signaling); and HRP-conjugated sheep anti-mouse IgG, (GE Healthcare, Waukesha, WI). For detection of co-immunoprecipitated proteins, protein A-HRP conjugate (Cell Signaling Technologies, Beverly, MA) was used as secondary antibody to eliminate the interfering IgG bands.

p21 mRNA = experiment: qRT-PCR for p21 in infected HFFs; type: cell-based, human; settings: contact-inhibited cells, emetine 75 nM, p<0.01
Text: RNA isolation and real time quantitative reverse transcriptase (qRT) PCR. Total RNA was isolated from cultured cells using RNeasy Mini kit (Qiagen, Georgetown, MD) according to manufacturer's instructions. RevertAid first strand cDNA synthesis kit (Fermentas life sciences, Cromwell Park, MD) was used to synthesize first strand cDNA from total RNA using oligo-dT primers. Negative reverse-transcriptase (−RT) reactions were included to ensure the specificity of qRT-PCR reactions. Synthesis of first strand cDNA from mRNA template was carried out at 42° C. for 1 h. Quantitative RT-PCR (qRT-PCR) was performed using specific primers for p21 (F: 5′ […] 3′ (SEQ ID NO:3); R: 5′ […] 3′) (SEQ ID NO:4) and SYBR green (Fermentas life science) with two-step cycling protocol (95° C. for 15 s, 60° C. for 1 min). Reactions were performed in triplicates and GAPDH (F: 5′ […] 3′ (SEQ ID NO:5); R: 5′ […] 3′ (SEQ ID NO:6)) was used as the internal control.

[2] = human; cited from earlier work

In the case of CC[C@H]1CN2CCc3cc(OC)c(OC)cc3[C@@H]2C[C@@H]1C[C@H]1NCCc2cc(OC)c(OC)cc21 [emetine, emetine dihydrochloride hydrate], the “expression of HCMV proteins IE1/2, UL44 and pp65” value [1] is reported as “significantly reduced”, the “viral UL44 and pp65 expression at high cell density” value ([1]; emetine 75 nM, vs infected untreated cells, not at lower cell density) is reported as “significant reduction” and the “increase in p21 mRNA” value (p21 mRNA; 24 hpi) is reported as 5.4 fold. For the same compound, the “increase in p21 mRNA” value (p21 mRNA; 72 hpi) was 6.7 fold and the half-life [2] was 24 to 48 h.
